The source made the active and inactive calls.
What was measured:
[1] = inhibitors of firefly luciferase expression or activity, dose response, H4 neuroglioma cells, luminescence (AID 1990); type: functional, cell-based
[2] = Luminescence Cell-Based Dose Response HTS to Identify Inhibitors of 5'UTR Stem-Loop Driven Prion Protein mRNA Translation in H4 Neuroglioblastoma Cells. [Related pubchem assays: 1827 (Project Summary), 1813 (Primary HTS)]; type: functional
[3] = inhibitors of SNCA 5'UTR-driven reporter translation, confirmation, H4 neuroglioma cells, luminescence (AID 1988); type: functional, cell-based
[4] = cytotoxicity in HEK-293T cells, dose response, cytotoxicity control for TCR NF-kB inhibitor project, luminescence, T-cell screen hits (AID 489026); type: functional, cell-based;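 further: cells exposed to compound about 14 hours before the viability readout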
[5] = tested on: HEK293; assay: NOD1 signaling inhibitors, primary screen, cell-based, luminescence, uHTS (AID 1578); type: functional; conditions: Homo sapiens
[6] = tested on: HEK293; assay: cells; type: functional, cell-based; conditions: Homo sapiens
[7] = tested on: HEK293; assay: cells; type: functional, cell-based; conditions: Homo sapiens; remark: listed apart in the source
[8] = tested on: HEK293; assay: NOD2 signaling inhibitors in MDP-stimulated cells, cell-based, uHTS, luminescence (AID 2001); type: functional; conditions: Homo sapiens
[9] = Luminescence Cell-Based Dose Retest to Confirm Inhibitors of Cancer Stem Cells. [Related pubchem assays (depositor defined):AID2717, AID2721]; type: functional; conditions: Homo sapiens
[10] = tested on: Vero; assay: cells; type: functional; conditions: Chlorocebus sabaeus
[11] = target: T1, High affinity choline transporter 1 (Homo sapiens, UniProt Q9GZV3); assay: CHT inhibitors, dose response, cell-based, 5-point CRC, membrane potential dye (AID 504840); type: functional
T1 sequence (Q9GZV3 whole entry): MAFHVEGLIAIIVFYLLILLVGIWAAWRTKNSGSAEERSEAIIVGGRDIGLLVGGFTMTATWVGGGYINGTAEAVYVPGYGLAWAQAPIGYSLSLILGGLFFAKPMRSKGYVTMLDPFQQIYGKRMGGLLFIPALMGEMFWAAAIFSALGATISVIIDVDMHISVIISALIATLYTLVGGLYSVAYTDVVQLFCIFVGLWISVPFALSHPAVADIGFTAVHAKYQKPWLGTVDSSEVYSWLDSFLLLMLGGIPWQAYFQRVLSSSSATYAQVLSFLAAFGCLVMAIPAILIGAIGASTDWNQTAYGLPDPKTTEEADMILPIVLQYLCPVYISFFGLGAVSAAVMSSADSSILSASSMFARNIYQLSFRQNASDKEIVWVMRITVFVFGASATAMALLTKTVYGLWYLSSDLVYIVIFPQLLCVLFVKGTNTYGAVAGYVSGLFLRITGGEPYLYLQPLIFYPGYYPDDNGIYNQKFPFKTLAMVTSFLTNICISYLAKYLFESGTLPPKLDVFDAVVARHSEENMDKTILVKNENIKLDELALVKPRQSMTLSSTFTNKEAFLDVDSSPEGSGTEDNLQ

[12] = target: T2, Short transient receptor potential channel 4 (Mus musculus, UniProt Q9QUQ5); assay: mouse TRPC4 channel activators, dose response, cell-based, HEK293 TRPC4/mu-opioid, Fluo-4 calcium (AID 434937); type: functional
T2 sequence (Q9QUQ5 whole entry): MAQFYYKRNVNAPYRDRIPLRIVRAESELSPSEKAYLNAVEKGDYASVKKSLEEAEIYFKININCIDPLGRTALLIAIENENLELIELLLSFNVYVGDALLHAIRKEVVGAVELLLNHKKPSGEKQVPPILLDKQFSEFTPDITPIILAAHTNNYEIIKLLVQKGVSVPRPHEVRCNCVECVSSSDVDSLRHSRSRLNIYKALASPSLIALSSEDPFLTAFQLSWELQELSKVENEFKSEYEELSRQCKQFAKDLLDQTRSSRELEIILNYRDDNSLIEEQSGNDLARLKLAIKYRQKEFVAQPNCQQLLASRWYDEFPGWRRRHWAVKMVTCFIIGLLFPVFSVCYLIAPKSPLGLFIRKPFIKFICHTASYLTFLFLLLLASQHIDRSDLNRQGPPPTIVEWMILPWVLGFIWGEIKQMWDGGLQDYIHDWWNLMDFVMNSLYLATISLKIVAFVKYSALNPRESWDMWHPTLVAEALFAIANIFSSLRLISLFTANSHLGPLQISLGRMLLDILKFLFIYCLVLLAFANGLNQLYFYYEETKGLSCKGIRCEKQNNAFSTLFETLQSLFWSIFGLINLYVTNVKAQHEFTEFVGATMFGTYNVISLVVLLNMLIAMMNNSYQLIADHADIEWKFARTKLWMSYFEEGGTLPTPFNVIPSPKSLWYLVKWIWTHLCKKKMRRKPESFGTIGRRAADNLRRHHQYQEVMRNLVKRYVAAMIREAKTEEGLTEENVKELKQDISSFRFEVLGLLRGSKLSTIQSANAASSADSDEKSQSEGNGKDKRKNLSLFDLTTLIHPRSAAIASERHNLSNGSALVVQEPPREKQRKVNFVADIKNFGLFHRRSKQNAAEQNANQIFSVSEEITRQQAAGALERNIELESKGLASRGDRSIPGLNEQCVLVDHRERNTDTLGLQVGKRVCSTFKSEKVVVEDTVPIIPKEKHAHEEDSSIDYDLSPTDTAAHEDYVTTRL

[13] = target: T3, Corticotropin-releasing factor receptor 2/Corticotropin-releasing factor-binding protein (Homo sapiens, UniProt P24387+Q13324); assay: activators of CRF receptor 2 with binding protein – uHTS hits, confirmation (AID 602473); type: functional; conditions: read-out: EC50_Mean
T3 sequence (Q13324 whole entry): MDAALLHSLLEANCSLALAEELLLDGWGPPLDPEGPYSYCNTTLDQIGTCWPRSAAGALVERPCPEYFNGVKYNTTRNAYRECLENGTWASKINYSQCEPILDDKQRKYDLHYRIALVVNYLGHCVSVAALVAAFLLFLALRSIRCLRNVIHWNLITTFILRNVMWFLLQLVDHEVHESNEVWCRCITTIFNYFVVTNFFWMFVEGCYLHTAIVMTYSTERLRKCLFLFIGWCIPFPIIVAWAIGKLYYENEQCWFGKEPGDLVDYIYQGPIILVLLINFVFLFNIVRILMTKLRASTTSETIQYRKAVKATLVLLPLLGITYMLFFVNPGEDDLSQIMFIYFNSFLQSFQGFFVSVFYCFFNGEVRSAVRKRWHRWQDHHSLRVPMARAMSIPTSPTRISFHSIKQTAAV
T3 sequence (P24387 whole entry): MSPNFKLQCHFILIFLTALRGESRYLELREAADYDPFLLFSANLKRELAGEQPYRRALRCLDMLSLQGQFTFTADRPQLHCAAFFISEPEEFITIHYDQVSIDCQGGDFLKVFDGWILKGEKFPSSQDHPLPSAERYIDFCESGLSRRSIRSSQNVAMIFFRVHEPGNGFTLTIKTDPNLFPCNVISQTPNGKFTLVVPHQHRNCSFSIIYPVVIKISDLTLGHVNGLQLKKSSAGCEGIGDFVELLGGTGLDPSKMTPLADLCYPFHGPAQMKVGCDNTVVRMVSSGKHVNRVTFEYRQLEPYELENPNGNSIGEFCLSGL

[14] = human group III sPLA2 inhibitors, dose response, biochemical, QFRET, IC50 (AID 743457);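 further: green fluorescence rise as the enzyme cleaves BODIPY PC-A2 in liposomes; potency for inhibition of the enzyme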
[15] = microbe, parasite or virus in culture; type: functional; conditions: Mycobacterium tuberculosis
[16] = target: Nonstructural protein 1 (Influenza A virus, UniProt Q194T2); type: functional, Influenza A virus (A/California/07/2009(H1N1))
[17] = tested on: Streptococcus sp. 'group A'; assay: growth inhibition of control SK(-) GAS strain, dose response, counter-screen for streptokinase expression inhibitor project, luminescence, kanamycin, BacTiterGlo, confirmation (AID 1900); type: functional, organism-based
[18] = target: T4, Streptokinase A (Streptococcus pyogenes serotype M1, UniProt P10520); assay: S. pyogenes streptokinase expression inhibitors, potency, dose response, plasminogen activation absorbance, OD405 (AID 1914); type: functional, Streptococcus pyogenes M1 GAS;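 further: secreted streptokinase activity via plasminogen activation per viability signal from cell pellet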
T4 sequence (P10520 whole entry): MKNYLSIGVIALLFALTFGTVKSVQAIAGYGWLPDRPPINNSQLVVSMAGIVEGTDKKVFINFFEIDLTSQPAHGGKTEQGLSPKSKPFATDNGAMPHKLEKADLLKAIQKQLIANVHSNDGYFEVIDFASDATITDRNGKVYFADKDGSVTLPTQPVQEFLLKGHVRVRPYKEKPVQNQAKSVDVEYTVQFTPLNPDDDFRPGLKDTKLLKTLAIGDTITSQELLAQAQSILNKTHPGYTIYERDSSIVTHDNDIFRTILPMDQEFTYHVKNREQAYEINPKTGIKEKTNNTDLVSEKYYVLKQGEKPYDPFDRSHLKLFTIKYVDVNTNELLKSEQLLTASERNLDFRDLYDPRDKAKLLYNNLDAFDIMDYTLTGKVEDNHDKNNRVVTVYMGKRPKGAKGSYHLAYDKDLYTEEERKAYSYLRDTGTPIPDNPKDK

[19] = tested on: Streptococcus; assay: Group A Streptococcus viability loss, dose response, counter-screen for streptokinase expression inhibitor project, luminescence, BacTiterGlo (AID 1915); type: functional, organism-based;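 further: potency for reduction of bacterial viability or growth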
[20] = tested on: INS1; assay: beta cell apoptosis inhibitors, cytokine rescue, dose response, luminescence, retest (AID 449756); type: functional, cell-based; conditions: Rattus norvegicus;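 further: cell death triggered by IL-1 beta plus TNF-alpha plus IFN-gamma mixture; protective hits raise ATP signal compared with cytokine alone wells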

Chain of Nonstructural protein 1 (Q194T2 whole entry): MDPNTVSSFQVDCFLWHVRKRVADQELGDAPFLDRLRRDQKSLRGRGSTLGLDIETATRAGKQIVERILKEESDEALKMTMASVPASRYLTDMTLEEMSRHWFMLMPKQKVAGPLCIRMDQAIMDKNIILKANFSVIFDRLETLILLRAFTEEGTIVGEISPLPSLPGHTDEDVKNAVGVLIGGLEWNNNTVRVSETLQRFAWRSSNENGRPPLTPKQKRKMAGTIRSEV

**Q.** What does the source list for `COc1ccccc1NC(=O)C1=C(C)Nc2nc3ccccc3n2C1c1cccs1` (stereo unspecified)?
**A.** EC50 [1]: 7.89 µM (inconclusive); EC50 [2]: 9.88 µM (active); EC50 [3]: 5.03 µM (active); IC50 [4]: > 80 µM (inactive)

**Q.** With `O=C(Nc1ccc(S(=O)(=O)N2CCOCC2)cc1)c1cc(-c2cc(Cl)ccc2O)n[nH]1` as the molecule, how does the EC50 [5] read?
**A.** > 20 µM (inactive)

**Q.** And the IC50 [6]?
**A.** 6.05 µM (active)

**Q.** And the IC50 [7]?
**A.** 7.45 µM (active)

**Q.** What about the IC50 [8] of the same molecule?
**A.** 6.8 µM (active)

**Q.** And the AC50 [9]?
**A.** 0.962 µM (active)

**Q.** What about the CC50 [10] of the same molecule?
**A.** 10.9 µM (active)

**Q.** For `Cc1ccc(C(=O)CSc2nnc(-c3ccco3)n2C)cc1`, which IC50 [11] is on record?
**A.** 9.62 µM (active)

**Q.** With `O=C(NNC(=S)NC(=O)c1ccccc1Cl)c1cccc([N+](=O)[O-])c1` as the molecule, how does the EC50 [12] read?
**A.** 5.96 µM (active)

**Q.** And the CC50 [10]?
**A.** > 25 µM (active)

**Q.** And the EC50 [13]?
**A.** 11.2 µM (active)

**Q.** What about the IC50 [14] of the same molecule?
**A.** 22.3 µM (inactive)

**Q.** With `N#CC(C#N)=c1ccc2c(c1)N1C3=C(CCCC3)CC3CCCCC31N=2` (stereo unspecified) as the molecule, how does the CC50 [15] read?
**A.** 29.5 µM (active)

**Q.** What about the IC50 [16] of the same molecule?
**A.** 11.2 µM (active)

**Q.** What about the IC50 [11] of the same molecule?
**A.** 11 µM (active)

**Q.** With `O=C(Nc1ccc([N+](=O)[O-])cc1)Nc1ccc(Cl)cc1F` as the molecule, how does the EC50 [5] read?
**A.** 18.7 µM (active)

**Q.** What about the EC50 [17] of the same molecule?
**A.** > 150 µM (not active)

**Q.** And the IC50 [6]?
**A.** 3.12 µM (active)

**Q.** What about the EC50 [18] of the same molecule?
**A.** > 150 µM (not active)

**Q.** And the IC50 [7]?
**A.** > 20 µM (inactive)

**Q.** What about the IC50 [8] of the same molecule?
**A.** 3.26 µM (inactive)

**Q.** And the EC50 [19]?
**A.** > 150 µM (not active)

**Q.** And the AC50 [20]?
**A.** 3.73 µM (active)
